The values below come from ChEMBL document CHEMBL1151488, “Synthesis and biological activity of J-104,118, a novel, potent inhibitor of squalene synthase” (Bioorg Med Chem Lett, 1995).

Assay [1] relates to Mus musculus. Nature of the assay: Inhibition of cholesterol synthesis from [14C]acetate expressed as percent reduction in radioactivity in mice after oral administration of 3 mg/kg. Type of assay: functional.
Another assay addresses T1, Squalene synthase (Homo sapiens, UniProt P37268).
T1 sequence (P37268 whole entry): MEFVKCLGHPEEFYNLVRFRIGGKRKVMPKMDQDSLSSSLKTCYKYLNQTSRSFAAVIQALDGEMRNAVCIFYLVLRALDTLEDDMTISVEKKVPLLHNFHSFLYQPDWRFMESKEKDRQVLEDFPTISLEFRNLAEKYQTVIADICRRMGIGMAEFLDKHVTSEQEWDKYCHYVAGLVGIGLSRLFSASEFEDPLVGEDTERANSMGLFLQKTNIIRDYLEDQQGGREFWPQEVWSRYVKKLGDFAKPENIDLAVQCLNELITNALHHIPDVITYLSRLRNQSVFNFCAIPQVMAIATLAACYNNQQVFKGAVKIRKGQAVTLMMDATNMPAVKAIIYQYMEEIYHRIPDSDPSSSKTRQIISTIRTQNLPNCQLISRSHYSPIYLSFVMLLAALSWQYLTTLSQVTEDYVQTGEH
Briefly: Inhibitory activity against HepG2 Squalene Synthase (SQS).

The nature of assay [2]: Inhibition of cholesterol synthesis by compound after oral administration at of 10-100 mg/kg/day in marmoset. It counts as functional.
The test system of assay [3] is Mus musculus. Briefly: Tested for inhibition of cholesterol synthesis by compound after oral administration at 10 mg/kg in mice. It counts as functional.

For `C[C@H](NC(=O)C[C@@H](CC(=O)O)C(=O)O)[C@@H](Cc1ccc(Cl)c(Cl)c1)c1ccc(-c2ccccc2)c(F)c1`, the Reduction in the assay with Mus musculus [1] stood at 84%. Also, the IC50 on Squalene synthase was 0.52 nM.

Molecule `C[C@H](NC(=O)C[C@@H](CC(=O)O)C(=O)O)[C@@H](Cc1ccc(Cl)cc1)c1ccc(-c2ccccc2)cc1` had a concentration for half-maximal inhibition (IC50) at Squalene synthase of 3.2 nM.

Take `C[C@@H](NC(=O)C[C@H](CC(=O)O)C(=O)O)[C@@H](Cc1ccc(Cl)c(Cl)c1)c1ccc(-c2ccccc2)c(F)c1`: at Squalene synthase, inhibition was half-maximal at 19 nM (IC50).

At Squalene synthase, `C[C@@H](NC(=O)CC(CC(=O)O)C(=O)O)[C@H](Cc1ccc(Cl)c(Cl)c1)c1ccc(-c2ccccc2)c(F)c1` (some centres not stated) gave a 50% inhibitory concentration (IC50) greater than 300 nM.

In the case of `C[C@H](NC(=O)C[C@@H](CC(=O)O)C(=O)O)[C@@H](Cc1ccc(Cl)c(Cl)c1)c1ccc(-c2ccccc2)cc1`, the midpoint of inhibition at Squalene synthase, the IC50, lay at 1.2 nM.

On to `C[C@@H](NC(=O)C[C@H](CC(=O)O)C(=O)O)[C@H](Cc1ccc(Cl)c(Cl)c1)c1ccc(-c2ccccc2)c(F)c1`, for which the IC50 against Squalene synthase amounted to 16 nM.

As for `C[C@H](NC(=O)CC(CC(=O)O)C(=O)O)[C@@H](Cc1ccc(Cl)c(Cl)c1)c1ccc(-c2ccccc2)c(F)c1` (some centres not stated), the IC50 at Squalene synthase is greater than 300 nM.

`C=C(CCC12OC(C(=O)O)C(O)(C(=O)O)C(C(=O)O)(O1)[C@H](OC(=O)/C=C/[C@@H](C)C[C@@H](C)CC)[C@H]2O)[C@@H](OC(C)=O)[C@H](C)Cc1ccccc1` (some centres not stated) [ZARAGOZIC ACID A]: the Reduction in assay [2] is on record as 75%. For the same molecule, the inhibition in vivo at 10 mg/kg in the assay on Mus musculus [3] worked out at 38%.

In turn, `CC(NC(=O)CC(CC(=O)O)C(=O)O)C(Cc1ccc(Cl)cc1)c1ccc(Cl)cc1` (configuration not stated) had an IC50 on Squalene synthase of 660 nM.

With `C[C@H](NC(=O)CC(CC(=O)O)C(=O)O)[C@@H](Cc1ccc(Cl)c(Cl)c1)c1ccc(-c2ccccc2)c(F)c1` (single isomer, unassigned), inhibition at Squalene synthase was half-maximal at 0.73 nM (IC50).

Broadly, the IC50 is the concentration that inhibits the measured activity by half. As usually defined, the inhibition in vivo is the percentage by which the read-out fell short of the control. High values mean a response far below the control, low ones a response near the control.
